In patent publication US20220362174A1, “Use of R-enantiomer Beta2-agonists for prevent and treatment of pulmonary inflammation and inflammatory remodeling for reduced adverse effects” (priority 2019, published 2022):
Entries after “also recorded” stand apart in the source; their conditions may differ.

Key:
OVA induced asthma mice [1] = test: Combination therapy of ipratropium with RS-, R- and S-salbutamol: airway resistance in response to methacholine; type: in vivo; conditions: for increase in airway resistance after treatment: response to methacholine, OVA + Saline 445%
Protocol: OVA sensitized/challenged asthma model Mice were sensitized and challenged with ovalbumin (OVA) or normal saline. […] On days 21, 22 and 23, the mice were challenged with 1% OVA in saline (0.01 g/mL) for 20 min via. a nebulizer (PART Turbo boy). […] In vivo airway responsiveness to methacholine (Mch) was assessed on day 28 in conscious, freely moving, spontaneously breathing mice by a whole-body plethysmography (Buxco Electronics Inc.). […] Before Mch challenge, a 20 μL drug aerosol or saline was given to the mice because of the short-acting bronchodilating effect of terbutaline. The degree of bronchoconstriction was expressed as enhanced pause (Penh), a calculated dimensionless value that correlates with measurement of airway resistance, impedance, and intrapleural pressure. […] Methods used were similar as mentioned above. Nebulized aerosol of saline, Methacholine 2 mg/ml (low dose) or 10 mg/ml (high dose) were given via inhalation to OVA induced asthma mice.

[2] = system: OVA-sensitized/OVA-challenged mice; test: Airway responsiveness to methacholine by whole-body plethysmography (Penh) in OVA sensitized/challenged asthma model; type: in vivo
Protocol: (§1) OVA sensitized/challenged asthma model Mice were sensitized and challenged with ovalbumin (OVA) or normal saline. Briefly, mice were sensitized by intraperitoneal (i.p.) injection of 0.2 mL of 2% aluminum hydroxide (ALUM) gel containing 10 μg of OVA antigen on days 0 and 14. On days 21, 22 and 23, the mice were challenged with 1% OVA in saline (0.01 g/mL) for 20 min via. a nebulizer (PART Turbo boy). On day 26, a 20 min nebulized OVA challenge with 5% OVA in saline (0.05 g/mL) was conducted. The control group received 0.2 mL of saline with 2% ALUM administered intraperitoneally on days 0 and 14 before receiving 20 min nebulized normal saline without OVA on days 21, 22, 23 and 26.
In vivo airway responsiveness to methacholine (Mch) was assessed on day 28 in conscious, freely moving, spontaneously breathing mice by a whole-body plethysmography (Buxco Electronics Inc.). Mice were challenged with aerosolized saline or increasing concentrations of Mch (2, 10, 20 mg/mL) administered by an ultrasonic nebulizer for 2 min. Before Mch challenge, a 20 μL drug aerosol or saline was given to the mice because of the short-acting bronchodilating effect of terbutaline. The degree of bronchoconstriction was expressed as enhanced pause (Penh), a calculated dimensionless value that correlates with measurement of airway resistance, impedance, and intrapleural pressure. Penh values were recorded and averaged for 4 min after each nebulization challenge.

[3] = system: OVA-sensitized/OVA-challenged mice; test: Whole blood analysis and eosinophils counts in BAL fluid; type: in vivo; conditions: OVA asthma mice after repeated inhalation
Protocol: as §1
After Methacholine challenge, mice were anesthetized, blood was collected for hematology analysis. Part of the collected blood was transferred to a heparinized Eppendorf tube, gently mixed and centrifuged under 845×g at 4° C. for 10 min to isolate plasma specimen for further analysis. Broncho alveolar lavage (BAL) was performed on the right lung using 0.3 mL of phosphate buffered saline (PBS) for four times. The saline was instilled into the lungs and allowed to equilibrate for 30 s before recovery, after centrifugation supernatants were stored at −80° C. for further cytokines analysis while cell pellet was suspended in 0.5 ml PBS and the eosinophils counts were performed using Wright's stain. Then all the organs (liver, right lung lobe, spleen, kidneys, heart, brain) were excised surgically and washed totally with ice-cold PBS to clear the blood and then blotted dry with filter paper. These tissue specimens were then accurately weighted and stored at −80° C. for detecting the drug distribution by LC-MS/MS. White blood cell (WBC) counts and differential WBC counts were analyzed using a ProCyte Dx Hematology Analyzer (IDEXX Laboratories) in 4 h after blood collection.

[4] = system: OVA-sensitized/OVA-challenged mice; test: Lung histopathology (H&E, PAS, Masson) after R-, S-, rac-terbutaline; type: in vivo
Protocol: as §1
(§2) Left lung tissue was obtained for histopathology and fixed in 10% formalin for 24 h, followed by paraffin-embedded and then were sectioned at 4 μm for routine staining with hematoxylin and eosin (H&E, Solarbio, Beijing, China), or with periodic acid-Schiff (PAS, Solarbio, Beijing, China), or submitted to Masson's trichrome staining (Baso, Zhuhai, China). Images of the stained lung sections were obtained by an Axisplus image-capturing system (Zeiss, Germany) and then a minimum of 3 bronchi (luminal diameter, 150-500 μm) were analyzed per mice for various parameters using an image analyzing computer system (IPP) by pathologists blinded to grouping. Histological score, airway smooth muscle thickness, PAS score (goblet cells hyperplasia), and collagen deposition were evaluated by a semi-quantitative scoring method.

p38 MAPK = test: Western blot of lung tissue: p38 MAPK phosphorylation; type: in vivo, mice; conditions: vs OVA group
Protocol: as §1
Total protein from lung tissue was extracted according to the guidelines of manufacturer (Beyotime, China) and the concentrations were determined by BCA assay (Pierce). Primary antibodies against p38 MAPK (CST #8690), p-p38 MAPK (Thr180/Tyr182, CST #4511), NF-κB p65 (GeneTex #GTX102090), p-NF-κB p65 (S536, CST #3033) and GAPDH (Affinity #AF7021) as a standard were purchased and used.

OVA induced asthma mice [5] = test: Combination therapy of ipratropium with R- and S-salbutamol: lung histopathology (Masson, PAS); type: in vivo
Protocol: as §2
Methods used were similar as mentioned above. Nebulized aerosol of saline, Methacholine 2 mg/ml (low dose) or 10 mg/ml (high dose) were given via inhalation to OVA induced asthma mice.

[6] = system: LPS-induced RAW264.7 cells; test: M1/M2 macrophage polarization by flow cytometry; type: cell-based; conditions: pretreated prior to LPS 100 ng/mL; basal 24.7%, LPS 59.2%; (R)-salbutamol 10 μM
Protocol: (§3) Macrophages were treated without or with (R)/(S)-salbutamol for 1 h prior to LPS stimulation and subsequently incubated for 12 h. […] The fluorescence of the oxidized product (2′,7′-dichlorofluorescein, DCF) was assessed using an LSM710 Laser Scanning Confocal Microscope (Carl Zeiss, Jena, Germany). The concentration of NO in the culture supernatant was measured by assaying the concentrations of nitrite (a stable NO breakdown product) using the Griess assay (Beyotime, Shanghai, China), according to the manufacturer's instructions. The intracellular NO level was detected using the NO-sensitive fluorescence probe DAF-FM DA (Sigma, St. Louis, Mo., USA) (24). Cells were labeled with DAF-FM DA (10 μM) at 37° C. for 30 min and were gently washed three times with PBS. Fluorescence was detected using a LSM710 Laser Scanning Confocal Microscope (Scale bars, 100 μm) (Carl Zeiss, Jena, Germany).
Macrophages M1 (F4/80+/CD11c+/CD206−) and M2 (F4/80+/CD11c−/CD206+) polarization were analyzed using flow cytometry.

[7] = system: LPS-induced macrophage RAW264.7 cells; test: M1 macrophage cytokines (TNF-α, IL-1β, MCP-1) by ELISA; type: cell-based; conditions: LPS challenge
Protocol: as §3
To confirm that M1 polarization was predominant over M2 polarization after stimulation with LPS, the levels of typical M1 macrophage cytokines (i.e., TNF-α, IL-1β and MCP-1) were quantified using ELISA; these cytokines are mainly synthesized by macrophages and play an important role in inflammatory diseases (35,36). This invention disclosed that TNF-α […] from 2.62-fold to 0.75-fold of control levels following LPS stimulation (FIG. 8A). IL-1β is a hallmark of many chronic inflammatory diseases in humans and is reportedly associated with acute phase reactions (35,37). […] We conclude that LPS is likely to lead to M1 polarization but not M2 polarization.

[8] = system: LPS-induced RAW264.7 cells; test: NO production (DAF-FM DA probe, Griess assay); type: cell-based; conditions: LPS-induced cells
Protocol: as §3
In addition, the concentration of NO in the culture supernatant was measured by assaying the concentrations of nitrite (a stable NO breakdown product) using the Griess assay. […] To investigate (R)-salbutamol role on the level of iNOS, the mRNA and protein levels of iNOS were determined.

[9] = system: LPS-induced RAW264.7 cells; test: Intracellular ROS (DCFH-DA); type: cell-based; conditions: LPS-induced cells
Protocol: as §3
LPS can promote cell apoptosis through mitochondrial dysfunction, and mitochondria are the major source of ROS.

BALB/c mice [10] = test: Survival study after LPS challenge (sepsis); type: in vivo; conditions: for Percent of death after LPS challenges, 12 h: Saline + LPS 0; for Percent of death after LPS challenges, 24 h: Saline + LPS 36.4; for Percent of death after LPS challenges, 36 h: Saline + LPS 72.7; for Percent of death after LPS challenges, 48 h / Percent of death after LPS challenges, 72 h / Percent of death after LPS challenges, 144 h: Saline + LPS 90.9
Protocol: Treatment were given intraperitoneally for 3 consecutive days. One hour after the 3rd day treatments, LPS (15 mg/kg) was administered intraperitoneally. The animals were monitored. Survival rate was then recorded every 12 h for 144 hours.

BALB/c mice [11] = test: Lung function measurements 6 hours after LPS (Buxco); type: in vivo; conditions: 5.0 mg/kg
Protocol: Methods: Survival study: […] Treatment were given intraperitoneally for 3 consecutive days. […] The animals were monitored. Survival rate was then recorded every 12 h for 144 hours. The lung functions were measured with using Buxco system (Buxco Electronics, USA). After a brief acclimation to the chamber, the mice received an initial baseline challenge of saline. Measures were made at 6 hours after administration of LPS, including tidal volume and Penh which is an indication of airway resistance.

[12] = system: macrophages from the peritoneal fluid; test: LPS-induced proliferation and polarization of macrophages from the peritoneal fluid (sepsis); type: in vivo; conditions: in comparison of sepsis condition
Description: Macrophage activation and proliferation was considered to be the key step of initiation and development of sepsis. In one embodiment, LPS (PAMPs from bacteria) induced a proliferation and polarization of macrophages from the peritoneal fluid. […] These inhibitory effects can be blocked by using specific β2-recepter blocker.

With CC(C)(C)NCC(O)c1ccc(O)c(CO)c1 (racemic) [RS salbutamol, salbutamol] the “increase in airway resistance after treatment” value (OVA induced asthma mice [1]) was 214%.

CC(C)(C)NCC(O)c1cc(O)cc(O)c1 (racemic) [rac-terbutaline, terbutaline] was tested, and the “airway bronchoconstriction/hyperactivity (Penh) in response to increased doses of Mch” value ([2]; Mch 2, 10, 20 mg/mL aerosol, rac-ter at double dose of R-ter) was “much less effect”, the “baseline Penh value (baseline airway reactivity)” value ([2]; exposure to saline, after 7 days inhalation pretreatment, OVA group 0.80±0.12, Control group 0.55±0.08, rac-terbutaline at double molar amount) was “significantly reduce” and the “per cent of eosinophil counts in blood and BALF” value ([3]; listed as RS(rac)-terbutaline) was “significantly higher”. The “per cent of eosinophil counts in blood and BALF” value ([3]; listed as racemic terbutaline) was “less but similar effects as S-terbutaline”, the “PAS stain of lung tissues: inflammatory and histopathological changes, collagen deposition” value ([4]; Example 3, vs model) was “significant less beneficial effects” and the “degree of inflammatory cell infiltration (H&E, histological score)” value ([4]; rac-terbutaline at double dose) was “ameliorated”. For the same compound, the “PAS and Masson staining: subepithelial matrix glycoproteins, goblet cell hyperplasia, collagen deposition” value ([4]; vs OVA group) was “much less or not effective” and the “p38 MAPK phosphorylation (ratio of phosphorylated to total p38 MAPK)” value (p38 MAPK) was “much less effects”.

For CC(C)(C)NC[C@@H](O)c1ccc(O)c(CO)c1 [S-salbutamol, (S)-salbutamol, reference compound], the “increase in airway resistant in response to methacholine (in words)” value (OVA induced asthma mice [1]) was “much greater; also recorded: further enhance the airway response to methacholine”, the “increase in airway resistance after treatment” value (OVA induced asthma mice [1]) was 486% and the “PAS staining: goblet cell hyperplasia, mucus over secretion, airway edema” value (OVA induced asthma mice [5]; vs OVA model) was “further worsen the inflammatory condition”. The “Masson staining: collagen deposition, wall thickness of bronchiole and vascular vessels” value (OVA induced asthma mice [5]; vs ova (model) group) was “further worsens the inflammatory conditions and further increased the wall thickness”, the “prevalence of M1 macrophages (F4/80+/CD11c+/CD206−)” value [6] was “facilitated macrophage polarization” and the “release and expression of cytokines in LPS induced M1 macrophages (in words)” value [7] was “had the opposite effects”. For the same compound, the “release and expression of cytokines in LPS induced M1 macrophages (in words)” value ([7]; listed as S-albuterol) was “increased the release of cytokines”, the “production/levels of NO (in words)” value [8] was “increased” and the “production/levels of ROS (in words)” value [9] was “increased”. The “Percent of death after LPS challenges, 12 h” value (BALB/c mice [10]; 0.5 mg/kg + LPS) was 0%, the “Percent of death after LPS challenges, 24 h” value (BALB/c mice [10]; 0.5 mg/kg + LPS) was 36.4% and the “Percent of death after LPS challenges, 36 h” value (BALB/c mice [10]; 0.5 mg/kg + LPS) was 90.9%. The “Percent of death after LPS challenges, 48 h” value (BALB/c mice [10]; 0.5 mg/kg + LPS) was 90.9%, the “Percent of death after LPS challenges, 72 h” value (BALB/c mice [10]; 0.5 mg/kg + LPS) was 90.9% and the “Percent of death after LPS challenges, 144 h” value (BALB/c mice [10]; 0.5 mg/kg + LPS) was 90.9%. For the same compound, the “rate of mortality/death after LPS challenge (in words)” value (BALB/c mice [10]; in comparison of LPS challenged group without pretreatment (mortality 90.9%)) was “same rate of death at 48 hours; also recorded: higher rate of death at 36 h”.

With C[C@@H]1C[C@H]2[C@@H]3CCC4=CC(=O)C=C[C@]4(C)[C@@]3(F)[C@@H](O)C[C@]2(C)[C@@]1(O)C(=O)CO [Dexamethasone, dexamethasone, reference compound] the “Percent of death after LPS challenges, 12 h” value (BALB/c mice [10]; 5.0 mg/kg + LPS) was 0%, the “Percent of death after LPS challenges, 24 h” value (BALB/c mice [10]; 5.0 mg/kg + LPS) was 90.9% and the “Percent of death after LPS challenges, 36 h” value (BALB/c mice [10]; 5.0 mg/kg + LPS) was 90.9%. For the same compound, the “Percent of death after LPS challenges, 48 h” value (BALB/c mice [10]; 5.0 mg/kg + LPS) was 100%, the “Percent of death after LPS challenges, 72 h” value (BALB/c mice [10]; 5.0 mg/kg + LPS) was 100% and the “Percent of death after LPS challenges, 144 h” value (BALB/c mice [10]; 5.0 mg/kg + LPS) was 100%. For the same compound, the Tidal volume (BALB/c mice [11]; LPS + saline 0.13 ± 0.03) was 0.15 ± 0.04 mL and the Penh (BALB/c mice [11]; LPS + saline 1.31 ± 0.40) was 1.01 ± 0.46.

OCc1cc([C@H](O)CNCCCCCCOCCCCc2ccccc2)ccc1O [(S)-salmeterol, reference compound] was tested, and the “polarized M1 macrophages or M2 macrophages” value [12] was “further increased”.
